Assay results taken from patent US20230255873A1, “COSMETIC OR DERMATOLOGICAL PEPTIDE-BASED TREATMENT OF THE SKIN AND ITS INTEGUMENTS” (Sederma, priority 2020, published 2023).
The star is where a group is joined. Palmitoyl = CCCCCCCCCCCCCCCC(=O)*

Columns and labels:
[1] = test system: Propionibacterium acnes; assay: Propionibacterium acnes growth inhibition test (time to OD of 1); type: cell-based; settings: control 26 hours
Method: 1.4—Propionibacterium acnes Growth Inhibition Test Principle: Suspensions of Propionibacterium acnes of equivalent density are cultured in a suitable medium in the presence (test case) or absence (control case) of the preferred peptide according to the invention, in anaerobic condition, at 37° C. Samples are taken at regular intervals to measure the OD at 600 nm, to follow the growth of the bacterial population over time. The growth curve of each culture can therefore be established.

[2] = test system: P. acnes (strain ATCC6919); assay: Adhesion of P. acnes to a surface; type: cell-based, Propionibacterium acnes; settings: 48 hours and 72 hours, two concentrations tested
Source text: […] At the end of the contact plus more or less the peptide, the quantity of isolated cells, not attached, was estimated by an OD at 600 nm.

[3] = test system: extracellular lipases of P. acnes; assay: Lipase activity of P. acnes (4-MUO probe); type: biochemical, Propionibacterium acnes; settings: vs solvent control, n = 6
Method: A culture of P. acnes was carried out. The cells were then separated from the culture medium containing the lipases excreted by P. acnes. The peptide of the invention was added to samples of this cell-free medium and lipase activity was monitored using a fluorescent 4-methylumbelliferyl oleate (4-MUO) probe which is converted by lipases to fluorescent 4-methylumbelliferone, and whose signal has been recorded.

[4] = test system: S. epidermidis; assay: S. epidermidis growth (selectivity test); type: cell-based; settings: 6 ppm and 12 ppm, 48 hours
Method: S. epidermidis was inoculated in an appropriate medium and its growth was followed over time. The peptide according to the invention (6 ppm and 12 ppm) was tested on these cells for 48 hours in comparison with the control case (n=6).

[5] = test system: HaCaTs; assay: Scratch test on HaCaTs (keratinocyte migration, with or without P. acnes); type: cell-based, human; settings: 24 hours after injury
Method: 1.5—Scratch Test on HaCaTs
Principle: HaCats are inoculated in a 6-well plate in a suitable medium until confluence. 24-hour contact with the peptide according to the invention (test cases) or its excipient (control case) in the culture medium is then carried out. After this first step, wounds are made on the cell layers in the experimental wells (with a dedicated tool to make reproducible and small wounds); two wells per case are dedicated to cell counting; rinsing with PBS and an addition of culture medium with or without the peptide according to the invention depending on the case, in the presence or absence of Propionibacterium acnes (100 bacteria for 1 HaCaT cell) are carried out. Photos are taken (to calculate the area of the wound at T0 over a specific area). The cultures are stopped after 24 hours of incubation and photos are taken on the same areas as at T0. A photo processing software (Image J) can calculate for each case the area at T0 and the area recolonized by cells, 24 hours after injury, and establish a ratio.

[6] = test system: normal human keratinocytes (NHK); assay: DNA Microarray on NHK culture; type: cell-based; settings: 9 ppm, 24 hours, confluent NHKs
Method: 1.2—DNA Microarray-Technology NHK Culture Principle: the peptide according to the invention at 9 ppm is brought into contact for 24 hours with confluent NHKs (versus control case). Then the NHKs layers are rinsed, and the cells are crushed to extract their mRNA. These mRNAs are then converted into DNA sequences which are analyzed after deposition on DNA chips and amplification by a method similar to qRT-PCR (Real-time Quantitative Reverse Transcription Polymerase Chain Reaction). The mRNA variations due to the peptide are compared to the control case (the solvent of the peptide). The results are expressed as an expression ratio between the treated case and the control case. A ratio greater than 2 is considered to be induction of gene expression ([…]).

[7] = test system: HaCaT (human keratinocyte line); assay: ELISA assay of hyaluronic acid on HaCaT culture; type: cell-based; settings: 72 hours of contact
Method: This same type of test was carried out on a HaCaT culture (human keratinocyte line), but without the irradiation step, with a contact time of 72 hours between the cells and the peptide of the invention and an ELISA assay of hyaluronic acid on the culture medium.

[8] = test system: P. acnes; assay: Persistent effect on P. acnes growth after removal of the peptide; type: cell-based, Propionibacterium acnes; settings: 48 hours of contact, then fresh medium without peptide
Method: This study was also carried out to follow the persistent effect of the peptide according to the invention on P. acnes, and to see if the inhibition can be quickly lifted in the absence of the peptide. The peptide was brought into contact with the cells from the start, as before. After 48 hours of contact and evaluation of the quantity of cells, the cells of all the cases were centrifuged and returned to a fresh medium without solvent or peptide, all the cases having the same quantity of cells. The growth was then assessed again.

[9] = test system: normal human keratinocytes (NHK); assay: Involucrin quantification by immunohistochemistry in NHK; type: cell-based; settings: 5 ppm
Method: Normal human keratinocytes (NHK) are grown on wells plate. When subconfluence was reached, cells received various concentrations of the peptides. After few days, evaluation of differentiation is compared to solvent control under microscope and cells are fixed to allow the study of involucrin by immunohistochemistry.
Involucrin is an early marker of keratinocytes differentiation. The below table show the percentage of variation of involucrin vs. Control.

## palmitoyl-lysyl-threonyl-serine-lysyl-serine (Palmitoyl-KTSKS-OH; SMILES CCCCCCCCCCCCCCCC(=O)N[C@@H](CCCCN)C(=O)N[C@H](C(=O)N[C@@H](CO)C(=O)N[C@@H](CCCCN)C(=O)N[C@@H](CO)C(=O)O)[C@@H](C)O) [Pal-KTSKS]
[1]; 6 ppm of peptide
  Growth of P. acnes: time required to reach an OD of 1: 54 h
[1]; 9 ppm of peptide
  Growth of P. acnes: time required to reach an OD of 1: 103 h
[1]; 12 ppm of peptide
  Growth of P. acnes: time required to reach an OD of 1: 135 h
[2]
  Drop in adhesion of P. acnes: more than 83%
[3]; 6 ppm of peptide
  Lipase activity of P. acnes, Variation (%): −22%; p < 0.01
[3]; 9 ppm of peptide
  Lipase activity of P. acnes, Variation (%): −64%; p < 0.01
[3]; 12 ppm of peptide
  Lipase activity of P. acnes, Variation (%): −88%; p < 0.01
[4]
  Growth of S. epidermidis relative to control: slight, temporary slowdown in growth
[5]; With P. acnes (Reference 2), 5 ppm of peptide
  Keratinocyte migration, variation compared to the control: −49.67%
[5]; With P. acnes (Reference 2), 7 ppm of peptide
  Keratinocyte migration, variation compared to the control: −66.15%
[5]; Without P. acnes, 5 ppm of peptide
  Keratinocyte migration, variation compared to the control: −3% (nsd)
[5]; Without P. acnes, 7 ppm of peptide
  Keratinocyte migration, variation compared to the control: −0.36% (nsd)
[6]
  Expressed gene ABHD5 (1-acylglycerol-3-phosphate O-acyltransferase): variation compared to the control: ×2.14
  Expressed gene ANXA1 (Annexin A1): variation compared to the control: ×3.05
  Expressed gene AQP5 (Aquaporin 5): variation compared to the control: ×3.11
  Expressed gene CALML5 (Calmodulin-like protein-5): variation compared to the control: ×10.73
  Expressed gene CERS3 (Ceramide synthase 3): variation compared to the control: ×2.38
  Expressed gene CGNL1 (Cingulin-like protein-1): variation compared to the control: ×26.40
  Expressed gene CLDN7 (Claudin): variation compared to the control: ×7.24
  Expressed gene CLDN23 (Claudin): variation compared to the control: ×2.69
  Expressed gene CRNN (Cornulin): variation compared to the control: ×258.60
  Expressed gene DEFB1 (Beta-1-defensin): variation compared to the control: ×4.48
  Expressed gene DEFB103B (Human beta defensin-3): variation compared to the control: ×337.87
  Expressed gene DMKN (Dermokin): variation compared to the control: ×3.58
  Expressed gene ELOVL4 (3-keto acyl-CoA synthase): variation compared to the control: ×5.06
  Expressed gene FLG2 (Filaggrine-2): variation compared to the control: ×197
  Expressed gene HMOX1 (Heme Oxygenase-1): variation compared to the control: ×29.27
  Expressed gene IL37 (Interleukin-37): variation compared to the control: ×7.82
  Expressed gene IVL (Involucrin): variation compared to the control: ×8.43
  Expressed gene KLK5 (Kallikrein 5): variation compared to the control: ×2.2
  Expressed gene LCE2C: variation compared to the control: ×37.7
  Expressed gene LCE3A (Late Cornified Envelop Protein): variation compared to the control: ×306.86
  Expressed gene LCE3B: variation compared to the control: ×324.01
  Expressed gene LCE3D: variation compared to the control: ×1454.67
  Expressed gene LOR (Loricrin): variation compared to the control: ×193
  Expressed gene OCLN (Occludin): variation compared to the control: ×8.65
  Expressed gene PADI-1 (Peptidyl Arginin Deaminase): variation compared to the control: ×185.61
  Expressed gene PI3 (Elafin): variation compared to the control: ×7.73
  Expressed gene PRSS8 (Serine protease-8): variation compared to the control: ×2.74
  Expressed gene RNASE7 (RNase 7): variation compared to the control: ×40.85
  Expressed gene S100A7 (Psoriasin): variation compared to the control: ×15.73
  Expressed gene SPINK5 (Serine protease inhibitor Kazal-type 5): variation compared to the control: ×3.77
  Expressed gene SPRR1A (Small Proline Rich Region Protein): variation compared to the control: ×2.00
  Expressed gene SPRR2A: variation compared to the control: ×24.09
  Expressed gene SPRR2B: variation compared to the control: ×451.61
  Expressed gene SPRR2C: variation compared to the control: ×15.35
  Expressed gene SPRR2D: variation compared to the control: ×23.97
  Expressed gene SPRR2E: variation compared to the control: ×12.48
  Expressed gene SPRR2F: variation compared to the control: ×15.29
  Expressed gene SPRR2G: variation compared to the control: ×687.57
  Expressed gene SPRR3: variation compared to the control: ×48.62
  Expressed gene SPRR4: variation compared to the control: ×23.16
  Expressed gene TGM1 (Transglutaminase-1): variation compared to the control: ×4.66
  Expressed gene TGM5 (Transglutaminase-5): variation compared to the control: ×27.1
  Expressed gene TIMP1 (Metallopeptidase inhibitor 1): variation compared to the control: ×3.68
  Expressed gene TIMP2 (Metallopeptidase inhibitor 2): variation compared to the control: ×5.96
  Expressed gene TJP1 (Tight junction protein ZO-1): variation compared to the control: ×2.02
[7]; 6 ppm
  Secretion of hyaluronic acid, Variation %/non treated cells: +33%; p < 0.01
[7]; 8 ppm
  Secretion of hyaluronic acid, Variation %/non treated cells: +42%; p < 0.01
[7]; 10 ppm
  Secretion of hyaluronic acid, Variation %/non treated cells: +62%; p < 0.01
[7]; 15 ppm
  Secretion of hyaluronic acid, Variation %/non treated cells: +107%; p < 0.01
[8]
  Persistent effect on P. acnes growth once the peptide is removed: no persistent effect
[9]
  Involucrin (% var vs. Control): +177%; p < 0.01
